Patent US9451771B2, “Compositions and methods to attract the brown marmorated stink bug (BMSB), Halyomorpha halys” (United States of America as Represented by the Secretary of …, priority 2012, dated 2016)

Test system: brown marmorated stink bug (BMSB), Halyomorpha halys
Assay: Field trials of experimental pheromone constituents, baited black pyramid traps
Format: in vivo
Excerpt: Field Bioassays. Field Trials of Experimental Pheromone Constituents: Pyramid traps based on dimensions previously used for native stink bugs (Leskey and Hogmire 2005, Hogmire and Leskey 2006) and for brown marmorated stink bugs (Leskey et al. 2012c) were used for all trials. […] Each panel was 1.22 m high, 52 cm wide at the base, and 7 cm wide at the top. Collection jars were constructed based on previously published dimensions (Hogmire and Leskey 2006) with internal cone opening of 1.6 cm with trimmed wire edging to reduce escape. In addition, a Hercon Vaportape™ II (Hercon Environmental, Emigsville, Pa.) was added as a killing agent to prevent escape from traps. In a preliminary study, addition of a killing agent increased trap captures ˜250%. Traps were deployed ˜5 meters from the border of apple and pear orchards at the Appalachian Fruit Research Station or in the border area between wood lots and row crops in Kearneysville, W. Va., Shepherdstown, W. Va., Keedysville, Md., and Beltsville, Md. Traps were spaced ˜50 meters apart. Traps were baited with compounds identified from headspace collections of male BMSB, synthesized and formulated into gray rubber septa or left unbaited.
Fourteen trials were conducted between 19 Apr. to 20 Oct. 2011 (Table 3) and four trials between 20 Mar. to 10 Oct. 2012 (Table 4). Traps were checked a minimum of twice weekly and the treatments were re-randomized at each collection.
All adults and nymphs were removed from traps and recorded. Hercon Vaportape™ strips were changed at four week intervals and lures were changed at two week intervals. Comparisons of adult and nymphal captures used the SAS GLM procedure to evaluate effect of treatment and replicate followed by Tukey's HSD if the model was significant. Appropriate transformations were used to stabilize normality if needed. The effect of sex was dropped from all models because it was never a significant factor.

[1] = AFRS 2011, Trial One, 19 April-10 May
[2] = AFRS 2011, Trial Seven, 8-19 August
[3] = AFRS 2011, Trial Ten, 19 Sept.-4 Oct.
[4] = Beltsville 2011, Trial One, 19 April-10 May

In the case of `CCC\C=C/C=C/C=C/C(=O)OC` [Lure #3, Methyl (2E,4E,6Z)-decatrienoate], the “Mean number BMSB adults (±SE) captured” value [1] is reported as 0.00 ± 0.00 per trap per sample, the “Mean number BMSB nymphs (±SE) captured” value [1] is reported as 0.00 ± 0.00 per trap per sample and the “Mean number BMSB adults (±SE) captured” value [2] is reported as 1.97 ± 0.37a per trap per sample. The “Mean number BMSB nymphs (±SE) captured” value [2] was 34.55 ± 5.85a per trap per sample, the “Mean number BMSB adults (±SE) captured” value [3] was 22.76 ± 4.41a per trap per sample and the “Mean number BMSB nymphs (±SE) captured” value [3] was 1.24 ± 0.34a per trap per sample. For the same compound, the “Mean number BMSB adults (±SE) captured” value [4] was 0.02 ± 0.02ab per treatment and the “Mean number BMSB nymphs (±SE) captured” value [4] was 0.00 ± 0.00 per treatment.
